# Reference: patent US10292991B2, “Small molecule therapeutic compounds that reduce the incidence of intracerebral hemorrhage and brain microhemorrhages” (St. Michaels Hospital, priority 2016, dated 2019)
# Columns and labels:
# [1] = tested on: β-Pix MO-induced hemorrhage in zebrafish; assay: βPix morpholino-induced hemorrhage in zebrafish, rescue by drugs; type: in vivo, zebrafish (Danio rerio)
# Description: Morpholino oligonucleotides (MOs) were custom-synthesized by Gene Tools (Carvalis, Oreg.); their sequences are shown in Table 1.
# (§1) Danieau buffer (58 mM NaCl, 0.7 mM KCl, 0.4 mM MgSO4, 0.6 mM Ca(NO3)2, 5.0 mM HEPES, pH 7.6) was used to dilute the MO solutions to 0.2 mM final concentration. Individual wells were placed on a 1.0% agarose plate, in which the embryos were positioned. Afterwards, the MO solution was injected through the cell yolk into embryos of 1 to 4 cell-stage. The injected quantities varied from 0.5 to 15 ng.
# bbhm292 zebrafish mutant has a hypomorphic mutation in βPix, resulting in ICH/BMH and hydrocephalus. The MO is βPixexon6-MO which blocks splicing of exon 6 and results in premature protein termination. […] Higher doses of βPixexon6-MO (up to 8 ng) result in a lack of blood circulation, and therefore no ICH/BMH was detected. Injection of 8 ng results in complete missplicing of βPix and therefore a null phenotype, whereas lower doses retain some normally spliced βPix. The βPixexon6-MO sequence is 5′-[…]-3′ [SEQ ID NO: 1]. 3Pixexon6-MO was injected into the embryos at the 1-2 cell stage, and compounds were added 12 hpf.
# (§2) The first three morpholino pairs were good for the efficacy study. Efficacy assays were performed using Artemether (ARM, Sigma) and artemesunate (ART, GMP). […] Treating these morphants with the drugs rescued the ICH phenotype.
# [2] = tested on: Hmgcrb - splice morpholino-induced hemorrhage in zebrafish; assay: Hmgcrb morpholino-induced hemorrhage in zebrafish, rescue by drugs; type: in vivo, zebrafish (Danio rerio); details: Danio rerio; Table 6
# Description: as §1, §2
# [3] = tested on: zebrafish embryos treated with LPS; assay: LPS-induced ICH/BMH and mortality in zebrafish embryos; type: in vivo; details: 1 μmol/L in fish water; LPS 200 mg/mL; preliminary data
# Description: Experiment 1: LPS-induced ICH/BMH in zebrafish embryos. The lead compounds will be tested in a LPS model of ICH/BMH to determine if rescue of the ICH/BMH phenotype is a general property of these compounds or it is specific to statin-induced ICH/BMH. […] LPS concentration used was 200 mg/mL. […] Experiments are ongoing to define the rescuing effects of artemether on LPS-induced brain hemorrhage. Double transgenic zebrafish (Gata1:DsRed/Flk1:GFP) with green fluorescent vessel and red fluorescent red blood cells are used. Arrow points to hemorrhage.
# [4] = tested on: ICH induced by anti-β3 integrin serum in neonatal mice; assay: Anti-β3 integrin mouse model of intracerebral hemorrhage; type: in vivo, β3+/− mice (neonates)
# From the text: An anti-β3 integrin model of intracerebral hemorrhage (ICH) was generated according to our previously reported methods (Yougbare I, Lang S, Yang H et al. Maternal anti-platelet beta3 integrins impair angiogenesis and cause intracranial hemorrhage. J Clin Invest 2015; 125:1545-1556). Briefly, serum containing anti-β3 antibodies was generated by immunizing β3−/− female mice with gel-filtered wild type platelets via tail-vein injections twice a week. To detect anti-β3 antibody, blood was collected from the saphenous vein of immunized female mice and left to clot. […]
# For the integrin ICH model, brains were taken out of the skull, cut at the mid-coronal position and assessed in a binary manner for whether or not there was any evidence of ICH. […]
# Brains were scanned using 7T Burker MRI with 16-channel solenoid coils. […] Following the reconstruction of images and applying image distortion correction algorithms, all brains were processed and analyzed for total volume of brain and total volume of hemorrhage. Quantification was done using percentage of bleeding (normalized to each brain size). […] Lastly, quantification was done in a blinded fashion. All quantifications and 3D reconstructions were performed using a combination of Display and Amira processing software.
# [5] = tested on: bbh mutant zebrafish (mutation in βPix), spontaneous ICH; assay: bbh (bubblehead) mutant genetic model of brain hemorrhage; type: in vivo, zebrafish (Danio rerio); details: Danio rerio, read-out: EC50 to rescue brain hemorrhage, bbh Mutant Model
# From the text: A specific zebrafish line with a gene mutation called bubblehead (bbh) was used. This line has spontaneous ICH. Bubblehead phenotype is caused by a mutation in βPix. Adult homozygous zebrafish were viable and fertile. […] More than 85% of zebrafish larvae display an ICH phenotype.
smiles,measurement,setting,value
CO[C@H]1O[C@@H]2O[C@@]3(C)CC[C@H]4[C@H](C)CC[C@@H]([C@H]1C)[C@@]24OO3 [Artemether],EC50,"[1]; Danio rerio, Table 6, read-out: EC50 to rescue hemorrhage induced by βPix - exon6 morpholino",51.6 ± 11.7 nM
same,Efficacy on β-Pix MO Hemorrhage,[1]; inhibition of β-Pix MO-induced hemorrhage,+++++ (One + sign represents 20% inhibition on 1 μmol/L ATV or β-Pix MO-induced hemorrhage.)
same,EC50,[2],62.5 ± 8.3 nM
same,Effect on fish survival (LPS-induced mortality),[3],protective effect
same,ICH incidence,"[4]; 25 mg/kg i.p. with anti-β3 sera at P2, n=24, model control 77%",47%
same,Total volume of ICH (MRI),"[4]; preliminary data, data not shown, vs controls",reduced
same,EC50,[5],37.5 nM
